Compound	melting point [°C]
NCC(O)c1cc2ccccc2s1 (stereo not drawn)	128 to 130
NC(=O)c1cccc(Oc2ccc(N)cn2)c1	195 to 197
NC(=S)NCc1ccccc1	163 to 165
CC1CCC(N2CC(C(=O)O)CC2=O)CC1 (stereo not drawn)	143 to 145
O=C(O)C1CCN(S(=O)(=O)c2cccs2)CC1	133 to 135
NS(=O)(=O)c1ccc(CCNC(=O)CCl)cc1	145 to 148
Cc1cc(Br)ccc1NC(=O)CCN	77 to 79
O=C(Cc1ccccc1)c1nc2ccccc2s1	110 to 112
CCN(CC)S(=O)(=O)c1ccc(NN)nc1	134 to 136
Clc1noc(-c2ccsc2)n1	108 to 110
CC(N)(C(=O)O)c1cc(F)ccc1F (stereo not drawn)	301 to 303
CC1(c2ccccn2)NC(=O)NC1=O (stereo not drawn)	170 to 172
Nc1ccc(CN2CCC(CO)CC2)cc1	165 to 167
CCOc1c(Br)cc(C(=O)O)cc1OC	140 to 142
CS(=O)(=O)c1ccc(OCCCBr)cc1	93 to 95
CC(C)NS(=O)(=O)c1ccc(/C=C/C(=O)O)cc1	223 to 225
Cc1cc(NN)nc2c(C)cccc12	168 to 170
Cc1ccc(SCCC(=O)O)cc1	71 to 73
CN(C)CC(N)=NO	135 to 137
Cc1ccc(N(C(=O)CCCl)C2C=CS(=O)(=O)C2)cc1C (stereo not drawn)	122 to 124
Cc1nc2ccccc2n1Cc1cc(N)ccc1Cl	191 to 193
Nc1ncc(C(O)(C(F)(F)F)C(F)(F)F)s1	184 to 186
CCOc1ccc(C(C)(C)C(=O)O)cc1OCC	74 to 76
CN1CCc2ncnc(Cl)c2C1	67 to 69

Compound	melting point [°C]
CNS(=O)(=O)c1ccc(S(N)(=O)=O)cc1	154 to 156
COC(=O)Cc1ccc(S(=O)(=O)Cl)s1	59 to 61
O=Cc1cn(-c2ccccc2)nc1-c1cccc(Br)c1	91 to 93
O=C(O)CSc1nnc(-c2ccc(Cl)cc2)o1	154 to 156
Nc1ccc(CC(=O)N2CCCc3ccccc32)cc1	141 to 143
O=C(O)Cc1ccc([N+](=O)[O-])cc1F	162 to 164
O=C1CN(Cc2ccc(Br)cc2F)CCN1	142 to 144
COc1cccc(C(=O)CC#N)c1	84 to 86
O=C(O)C=C1CCSCC1	56 to 58
O=C(O)c1cccc2[nH]cnc12	326 to 330
CCCOc1ccc(N)cc1Cl	49 to 51
Nc1cccc(-n2ccc(C(=O)O)n2)c1	249 to 251
O=C(O)CCCn1cncn1	140 to 142
c1ccc(CCNc2nccs2)cc1	68 to 70
CCc1ccc2cc(C(=O)O)[nH]c2c1	178 to 180
NNc1cccnc1Cl	149 to 151
CC(C)COc1ccc(C(=O)O)cn1	105 to 107
O=C(Cc1ccccn1)c1ccc(Br)cc1	126 to 128
NS(=O)(=O)C(F)F	59 to 61
Nc1ccc(S(=O)(=O)NCC2CC2)cc1	109 to 111
Cc1cc(C(=O)CCl)c(C)n1-c1cccc(S(=O)(=O)N2CCOCC2)c1	171 to 173
O=C(O)CSc1nnc(-c2ccc3ccccc3c2)o1	182 to 184
NC(=NO)c1ccc(N2CCCCC2)cc1	169 to 171
CNS(=O)(=O)c1cccc(F)c1	58 to 60

Compound	melting point [°C]
CCOc1ccc(NC(=O)CC#N)cc1	95 to 100
CS(=O)(=O)c1cccc(C(N)=O)c1	177 to 179
O=S(=O)(Nc1nc2ccccc2nc1Cl)c1ccccc1C(F)(F)F	157 to 159
Cc1cc2ncn(C(C)C(N)=S)c2cc1C (stereo not drawn)	204 to 206
COc1cc2ncc(O)nc2cc1OC	266 to 268
O=C(O)CCc1nc(Cc2ccccc2)no1	66 to 68
COc1ccc(C2(C(=O)O)CCCCC2)cc1OC	124 to 126
O=C(O)c1ccc(-c2cccc3ccccc23)s1	249 to 251
O=C(O)c1ccc(S(=O)(=O)Cl)cc1Cl	133 to 135
NC(=O)NCC1CCCCC1	168 to 170
CC(Cl)c1nc2scc(-c3cccs3)c2c(=O)[nH]1 (stereo not drawn)	241 to 243
NC(=O)Cn1ccc([N+](=O)[O-])n1	159 to 161
Clc1nc(CN2CCOCC2)nc2scc(-c3ccccc3)c12	82 to 84
Nc1cccc(C(=O)Nc2cnccn2)c1	135 to 137
CC(C)(C)OC(=O)N1CCC(C(=O)O)(C(=O)O)C1	131 to 133
Cc1cc(N)n(-c2ccncc2)n1	96 to 98
Nc1ccc(C(O)c2ccccc2)cc1[N+](=O)[O-] (stereo not drawn)	120 to 122
CCCCn1c(=O)[nH]c(=O)c2cc(C(=O)O)cnc21	216 to 218
COc1cc(C(=O)O)cc(CC(C)Cl)c1OC (stereo not drawn)	103 to 105
CC(C)(CCC(=O)O)NC(=O)OCC1c2ccccc2-c2ccccc21	119 to 121
O=C(Nc1ccc(F)cc1)NC1CCNC1 (stereo not drawn)	150 to 152
Cc1oc(-c2ccccc2F)nc1C(=O)O	174 to 176
O=C(O)c1ccc(CN2C(=O)c3ccccc3C2=O)cc1	258 to 260
O=c1[nH]c2ccc(S(=O)(=O)Cl)cc2[nH]1	210 to 212

Compound	melting point [°C]
Cc1oc(-c2ccsc2)nc1CCl	101 to 103
NCCC(O)(c1ccccc1)C(F)(F)F (stereo not drawn)	110 to 112
O=C(O)c1cccc(Cl)c1O	173 to 175
Cc1c(Br)cccc1CO	89 to 91
O=S(=O)(Cl)c1cnc2ccsc2c1	129 to 131
Cc1c(C)n(CCc2ccccn2)c2[nH]cnc(=N)c12	132 to 134
CCc1cc(O)nc(CCl)n1	125 to 127
NCc1nc(-c2cccs2)no1	141 to 143
O=C(CS)Nc1ccccn1	93 to 95
O=C(O)c1ccc(CS(=O)(=O)C(F)F)cc1	218 to 220
CCn1cnnc1-c1cccc(N)c1	179 to 181
O=C(O)c1cccc(COc2cccc(F)c2)c1	108 to 110
CC1CCCN(S(=O)(=O)c2ccc(CN)cc2)C1 (stereo not drawn)	92 to 94
NC(=S)Cc1nc2ccccc2s1	173 to 175
O=C(O)c1ccn(C2CCCC2)n1	108 to 110
Cc1cc(N)ccc1NC(=O)CN1CCCC1=O	209 to 211
O=C(O)c1cc(Br)c2c(c1)OCCO2	258 to 260
CC(=O)NC(Cc1c[nH]c2cc(F)ccc12)C(=O)O (stereo not drawn)	181 to 183
Cc1c(C(=O)O)nnn1-c1ccc2ncccc2c1	219 to 221
CCOC(=O)C(NS(C)(=O)=O)C(=O)OCC	72 to 74
Cc1ccc(S(C)(=O)=O)c(N)c1	103 to 105
COC(=O)c1sc2cccc(F)c2c1CBr	157 to 159
O=C1CC(C(F)(F)F)NCCN1 (stereo not drawn)	136 to 138
O=C(O)c1cc(-c2cccc(Cl)c2)on1	175 to 177

Compound	melting point [°C]
CC(C)Oc1ccc(C(=O)NN)cc1	117 to 119
O=[N+]([O-])c1ccccc1CSc1ccc(C(F)(F)F)cn1	64 to 66
Cc1ccc(-n2c(-c3ccccc3)cnc2S)c(C)c1	247 to 249
COc1cccc(C(N)CC(=O)O)c1 (stereo not drawn)	223 to 225
NS(=O)(=O)c1ccc(CCCl)cc1	178 to 180
O=C(O)c1ccon1	143 to 145
COC(=O)c1cc(S(=O)(=O)Cl)ccc1Br	89 to 91
Cc1ccc(S(=O)(=O)c2ccc(CBr)cc2)cc1	137 to 139
CC(=O)c1ccc(S(=O)(=O)N(C)CCCC(=O)O)cc1	80 to 82
CC(=O)Nc1ccc(C)cc1O	170 to 172
CC(C)(C)NCC(N)=O	49 to 51
CCCCn1c(=O)c(CCC(=O)O)nc2ccccc21	146 to 148
O=c1[nH]c2ccc(NCc3ccccc3Cl)cc2[nH]1	227 to 229
CCOc1cc(C=CC(=O)O)ccc1OCCOc1ccccc1	187 to 189
Cc1cc(C(=O)O)c(Cl)cc1F	149 to 151
Cc1nnc(-c2ccc(C(=O)O)cc2)o1	284 to 286
O=C(O)c1nc2[nH]c(-c3ccccc3)cc(=O)n2n1	282 to 284
CNc1ccc(C(=O)O)cn1	249 to 251
Cc1cc(S(=O)(=O)Cl)cc(C)c1F	88 to 90
CCC(C)n1ncc2c(C(=O)O)cc(C)nc21 (stereo not drawn)	148 to 150
O=C(O)CCC(=O)c1ccc(I)cc1	175 to 177
N#Cc1c(F)cccc1Oc1ccc(C(=O)O)cc1	186 to 188
Sc1nc(-c2ccc3c(c2)OCCO3)n[nH]1	282 to 284
NS(=O)(=O)c1ccc2c(c1)CCCN2	161 to 163

Compound	melting point [°C]
CCOC(=O)c1cnn(-c2ncccn2)c1N	181 to 183
CN(C)C(=O)c1ccnc(N)c1	196 to 198
O=C(CCl)N(C1CCCCC1)C1CCS(=O)(=O)C1 (stereo not drawn)	162 to 164
Nc1nc(Cl)ncc1[N+](=O)[O-]	209 to 211
O=c1[nH]cnc2c1CCNC2	251 to 253
NS(=O)(=O)c1ccc(F)c(C(=O)O)c1	186 to 188
CNS(=O)(=O)c1ccc(C(C)N)cc1 (stereo not drawn)	104 to 106
NNC(=S)Nc1ccccc1F	159 to 161
Cc1cccnc1NC(=O)C1CCNCC1	136 to 138
Cc1nc(NC2CC2)sc1C(=O)O	208 to 210
COc1ccc(-c2cnnc(N)n2)cc1	246 to 248
ClCc1sc2ccccc2c1Cl	77 to 79
Cc1nnnn1C(=Cc1ccccc1)C(=O)O	201 to 203
CCNC(=O)c1cc(Cl)ccc1N	122 to 124
CC(CS(=O)(=O)c1ccc(Br)cc1)C(=O)O (stereo not drawn)	144 to 146
OCc1cc(I)c(CO)cc1I	218 to 220
CC(C)NS(=O)(=O)c1ccccc1C(=O)O	111 to 113
O=C(NO)C1CC1	127 to 129
COc1ccc(Cl)cc1C1(CN)CCOCC1	100 to 102
Cc1c(C(=O)O)cnc2c1c(=O)n(C)c(=O)n2C	279 to 281
CC(C)(C)CCS(N)(=O)=O	91 to 93
Sc1ccc(Sc2ccc(S)cc2)cc1	112 to 114
CCOc1c(OC)cc(C=O)cc1OC	48 to 50
